# Ends that are not written are not given here.
# Legend:
# HLA-DR1 [1] = target: T1, HLA-DR1 (Homo sapiens, UniProt P01903+P01911, A100R/D57E/F55L/F60I/F76Y/I96L/L162R/M171V/P40L/Q125E/R42F/V115G/Y59C); experiment: Resistance to SDS-induced chain dissociation of HLA-DR1 (SDS-PAGE); assay type: binding
# T1 construct: made in house; host or cells: Sf9 insect cells
# HLA-DR1 [2] = target: T1, HLA-DR1; experiment: Competition against 125I-labeled HA 307-319 for binding to "empty" HLA-DR1
Ki (HLA-DR1 [2]) [nM],Compound,further results
,"CSCC[C@H](NC(=O)[C@H](CCCNC(=N)N)NC(=O)[C@H](CCSC)NC(=O)[C@H](CCCCN)NC(=O)[C@H](CO)NC(=O)[C@@H](NC(=O)[C@@H]1CCCN1C(=O)[C@H](CCCCN)NC(=O)[C@@H]1CCCN1C(=O)[C@@H]1CCCN1C(=O)[C@H](CCCCN)NC(=O)[C@@H]1CCCN1C(=O)[C@@H](N)CC(C)C)C(C)C)C(=O)N[C@@H](C)C(=O)N[C@H](C(=O)O)[C@@H](C)O [Ii 97-111, reference compound]","able to confer resistance to SDS-induced α-β chain dissociation of ""empty"" DR1 (HLA-DR1 [1]): Neither; able to compete with HA 307-319 for binding to DR1 (HLA-DR1 [2]): Neither"
68 ± 9,IPADLRIISANGCKVDNS [Na+/K+ ATPase 199-216],
,Ii 107-120: Ii peptide named in the text as the highest-affinity competitor; probably the Ii 106-120 entry of Table 2 (MRMATPLLMQALPM),"relative binding affinity to DR1 among competitor peptides (HLA-DR1 [2]; at first approximation, equivalent to control HA peptide): highest affinity of all the competitor peptides measured"
< 10,KMRMATPLLMQALPM [Ii 106-120],
> 10000,"SDLSFSKDWSFYL [β2 m 52-64, reference compound]",
49 ± 3,VGSDWRFLRGYHQYA [HLA-A2 103-117],

Compound,Ki (HLA-DR1 [2]) [nM],further results
LPKPPKPVSKMRMATPLLMQALPM [Ii 98-121],33 ± 5,
RVEYHFLSPYVSPKESP [Transf. Recept. 680-696],< 10,
